Measurements: patent US12168012B2, “NLRP3 inflammasome inhibitors” (Novartis AG, priority 2018, dated 2024)

Assays:
Format in all cases: cell-based
[1] = test system: THP-1 cells; assay: Readout of pyroptosis (PrestoBlue cell viability reagent) in the IL-1β secretion assay; conditions: Homo sapiens; PMA-differentiated THP-1 cells, nigericin; values marked * in the IL-1β column
Description: Monocytic THP-1 cells (ATCC: TIB-202) were maintained according to providers' instructions in RPMI media (RPMI/Hepes+10% fetal bovine serum+Sodium Pyruvate+0.05 mM Beta-mercaptoethanol (1000× stock)+Pen-Strep). Cells were differentiated in bulk with 0.5 μM phorbol 12-myristate 13-acetate (PMA; Sigma #P8139) for 3 hours, media was exchanged, and cells were plated at 50,000 cells per well in a 384-well flat-bottom cell culture plates (Greiner, #781986), and allowed to differentiate overnight. Compound in a 1:3.16 serial dilution series in DMSO was added 1:100 to the cells and incubated for 1 hour. The NLRP3 inflammasome was activated with the addition of 15 μM (final concentration) Nigericin (Enzo Life Sciences, #BML-CA421-0005), and cells were incubated for 3 hours. 10 μL supernatant was removed, and IL-1p levels were monitored using an HTRF assay (CisBio, #62IL1PEC) according to manufacturers' instructions. Viability and pyroptosis was monitored with the addition of PrestoBlue cell viability reagent (Life Technologies, #A13261) directly to the cell culture plate.

[2] = test system: NF-kB-dependent TNF-α secretion; assay: TNF-α secretion assay (counterscreen); conditions: Homo sapiens; THP-1 cells, Pam3CSK4-stimulated, 3 hours, HTRF
Summary of the method: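 Undifferentiated THP-1 cells, rested overnight, given compound then stimulated with 1 μg/mL LPS or 100 ng/mL Pam3CSK4 for 3 hours. Supernatant TNF-α measured by HTRF; IC50 from four-parameter logistic fit of % inhibition versus concentration, with viability monitored.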

[3] = test system: NLRP3 inflammasome; assay: IL-1β secretion assay; conditions: Homo sapiens, THP-1, 3 h, PMA-differentiated THP-1 cells, 15 μM nigericin, HTRF
Summary of the method: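 PMA-differentiated THP-1 cells stimulated with nigericin to trigger NLRP3-dependent IL-1β secretion, measured by HTRF after 3 h. Viability/pyroptosis monitored with PrestoBlue. IC50 from logistic fit of % inhibition vs concentration with Hill coefficient.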

With `CC(C)(O)c1nn(CC(=O)Nc2cccc(NS(C)(=O)=O)c2)c(=O)c2cc3sc(Cl)cc3n12` [Ex 116, 2-(2-Chloro-5-(2-hydroxypropan-2-yl)-8-oxothieno[2′,3′:4,5]pyrrolo[1,2-d][1,2,4]triazin-7(8H)-yl)-N-(3-(methylsulfonamido)phenyl)acetamide] the IC50 [1] was 400 nM.
For `CC(C)c1nn(CC(=O)N[C@H]2CCC[C@@H](NC(=O)OC(C)(C)C)C2)c(=O)c2cc3sc(Cl)cc3n12` [Ex 56, tert-Butyl ((1R,3S)-3-(2-(2-chloro-5-isopropyl-8-oxothieno[2′,3′:4,5]pyrrolo[1,2-d][1,2,4]triazin-7(8H)-yl)acetamido)cyclohexyl)carbamate], the IC50 [2] was greater than 100000 nM and the IC50 [1] was greater than 330 nM.
`CC(C)c1nn(CC(=O)Nc2nncs2)c(=O)c2cc3sc(Cl)cc3n12` [Ex 117, 2-(2-Chloro-5-isopropyl-8-oxothieno[2′,3′:4,5]pyrrolo[1,2-d][1,2,4]triazin-7(8H)-yl)-N-(1,3,4-thiadiazol-2-yl)acetamide] showed an IC50 [1] of 6000 nM.
`CC(C)(O)c1nn(CC(=O)NC2CC2)c(=O)c2cc3sc(Cl)cc3n12` [Ex 62, 2-(2-Chloro-5-(2-hydroxypropan-2-yl)-8-oxothieno[2′,3′:4,5]pyrrolo[1,2-d][1,2,4]triazin-7(8H)-yl)-N-cyclopropylacetamide] showed an IC50 [3] of 76.1 nM and an IC50 [2] greater than 100000 nM.
Molecule `CC(C)c1nn(CC(=O)NC23CC4CC(CC(O)(C4)C2)C3)c(=O)c2cc3sc(Cl)cc3n12` [Ex 114, 2-(2-Chloro-5-isopropyl-8-oxothieno[2′,3′:4,5]pyrrolo[1,2-d][1,2,4]triazin-7(8H)-yl)-N-((1S,3R,5S)-3-hydroxyadamantan-1-yl)acetamide] has an IC50 [3] of 298 nM and an IC50 [2] greater than 11000 nM.
`CC(C)c1nn(CC(=O)N[C@@H]2CCCN(C[C@@H](C)O)C2)c(=O)c2cc3sc(Cl)cc3n12` [Ex 128, 2-(2-Chloro-5-isopropyl-8-oxothieno[2′,3′:4,5]pyrrolo[1,2-d][1,2,4]triazin-7(8H)-yl)-N—((R)-1-((R)-2-hydroxypropyl)piperidin-3-yl)acetamide] gave an IC50 [3] of 4.5 nM and an IC50 [2] greater than 100000 nM.
`CC(C)(O)c1nn(CC(=O)N[C@@H]2CCCNC2)c(=O)c2cc3sc(Cl)cc3n12` [Ex 79, (R)-2-(2-Chloro-5-(2-hydroxypropan-2-yl)-8-oxothieno[2′,3′:4,5]pyrrolo[1,2-d][1,2,4]triazin-7(8H)-yl)-N-(piperidin-3-yl)acetamide] was tested, and the IC50 [3] was 244 nM and the IC50 [2] was greater than 100000 nM.
